Assay results published in PubChem BioAssay (NCI).
Where “and” joins values, the source holds several entries; their conditions need not be identical. Identical values can stand only once.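 The compound was tested at five concentrations on cells cultured in 96-well plates, with a 48-hour exposure period. At the GI50, growth is halved. TGI: total growth inhibition.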

Key:
Assay in all cases: NCI anticancer screen, dose series, 48 h
[1] = tested on: OVCAR-4 ovarian
[2] = tested on: MDA-MB-231 breast
[3] = tested on: MDA-MB-435
[4] = tested on: OVCAR-8 ovarian
[5] = tested on: SR leukemia
[6] = tested on: SK-OV-3 ovarian
[7] = tested on: NCI/ADR-RES ovarian
[8] = tested on: RXF 393 renal
[9] = tested on: KM12 colon
[10] = tested on: ACHN renal

CC(=O)Oc1cc2c(OC(C)=O)c(-c3c(C)cc4c(C(C)C)c(OC(C)=O)c(OC(C)=O)cc4c3OC(C)=O)c(C)cc2c(C(C)C)c1OC(C)=O
TGI [1]: 32 µM and > 69.6 µM and > 84.2 µM
GI50 [2]: 0.67 µM and 1.58 µM and 3.63 µM
TGI [2]: 2.08 µM and 7.6 µM and 12.4 µM
GI50 [3]: 8.13 µM and 6.8 µM and 10.1 µM
TGI [3]: 26.8 µM and 14.1 µM and 22.7 µM
GI50 [4]: 6.44 µM and 5.89 µM and 11.8 µM
TGI [4]: 19.1 µM and 17.6 µM and > 57.6 µM
GI50 [5]: 28.3 µM and 6.93 µM
TGI [5]: > 100 µM and 21.4 µM
GI50 [6]: 10.4 µM and 25.3 µM
TGI [6]: > 39.3 µM and 34.1 µM and 55.8 µM
GI50 [7]: 7.87 µM and 8.95 µM and 20 µM
TGI [7]: 33.1 µM and 32.7 µM and > 55.3 µM
GI50 [8]: 14 µM and 16.3 µM and 4.05 µM
TGI [8]: 30.6 µM and 34.5 µM and 14.9 µM
GI50 [9]: 4.83 µM and 5.02 µM and 9.12 µM
TGI [9]: 10.6 µM and 10.2 µM and 21.3 µM
GI50 [10]: 5.56 µM and 4.86 µM and 8.79 µM
TGI [10]: 13.2 µM and 11.6 µM and 22.8 µM

O=C(CCC(C(=O)c1ccccc1)c1ccccc1)c1ccccc1 (centres undefined)
GI50 [1]: 16.5 µM
TGI [1]: > 100 µM
GI50 [2]: 23.4 µM
TGI [2]: > 100 µM
GI50 [3]: 2.01 µM
TGI [3]: 6.03 µM
GI50 [4]: 21.6 µM
TGI [4]: > 100 µM
GI50 [5]: 4.46 µM
TGI [5]: > 100 µM
GI50 [6]: 78.8 µM
TGI [6]: > 100 µM
GI50 [7]: 4.74 µM
TGI [7]: > 100 µM
GI50 [8]: 11.8 µM
TGI [8]: > 100 µM
GI50 [9]: 3.94 µM
TGI [9]: > 100 µM
GI50 [10]: 31.3 µM
TGI [10]: > 100 µM

Cc1cc(O)cc(C)c1/C=C/c1cncc(-c2nn[nH]n2)c1
GI50 [1]: > 25 µM
TGI [1]: > 25 µM
GI50 [2]: > 25 µM
TGI [2]: > 25 µM
GI50 [3]: > 25 µM
TGI [3]: > 25 µM
GI50 [4]: > 25 µM
TGI [4]: > 25 µM
GI50 [5]: > 25 µM
TGI [5]: > 25 µM
GI50 [6]: > 25 µM
TGI [6]: > 25 µM
GI50 [7]: > 25 µM
TGI [7]: > 25 µM
GI50 [8]: > 25 µM
TGI [8]: > 25 µM
GI50 [9]: > 25 µM
TGI [9]: > 25 µM
GI50 [10]: > 25 µM
TGI [10]: > 25 µM

C/C(=C\COc1c2c(cc3c1CCO3)OC1(C=C2)OC(CC/C(C)=C/COc2c3ccoc3cc3oc(=O)ccc23)C(C)(C)O1)CCC(O)C(C)(C)O (centres undefined)
GI50 [1]: 6.23 µM
TGI [1]: > 100 µM
GI50 [2]: 7.59 µM
TGI [2]: > 100 µM
GI50 [3]: 36.4 µM
TGI [3]: > 100 µM
GI50 [4]: 8.56 µM
TGI [4]: > 100 µM
GI50 [5]: 5.04 µM
TGI [5]: > 100 µM
GI50 [6]: > 100 µM
TGI [6]: > 100 µM
GI50 [7]: 23.8 µM
TGI [7]: > 100 µM
GI50 [8]: 79.8 µM
TGI [8]: > 100 µM
GI50 [9]: 11.7 µM
TGI [9]: > 100 µM
GI50 [10]: 15 µM
TGI [10]: > 100 µM

COc1ccc2c(c1OC)OCC(CN(C)C)C2=O (centres undefined)
TGI [1]: 60.5 µM
TGI [2]: 34.6 µM
TGI [3]: 34.3 µM
TGI [4]: 50.2 µM
TGI [5]: 10.5 µM
TGI [6]: > 57.3 µM
TGI [7]: 72.1 µM
TGI [8]: 30.5 µM
TGI [9]: 33.9 µM
TGI [10]: 31.7 µM

COc1cnc2c(c1)C(=O)c1c-2n(CCCNC(C)C)c(=O)c2cc(F)ccc12
GI50 [1]: 0.301 µM
TGI [1]: 1.7 µM
GI50 [2]: 0.402 µM
TGI [2]: 1.57 µM
GI50 [3]: 0.309 µM
TGI [3]: 1.48 µM
GI50 [4]: 0.141 µM
TGI [4]: 1.28 µM
GI50 [5]: 0.0758 µM
TGI [5]: 0.839 µM
GI50 [6]: 0.22 µM
TGI [6]: 0.707 µM
GI50 [7]: 0.234 µM
TGI [7]: 1.81 µM
GI50 [8]: 0.23 µM
TGI [8]: 0.702 µM
GI50 [9]: 0.165 µM
TGI [9]: 0.851 µM
GI50 [10]: 0.0565 µM
TGI [10]: 0.229 µM

CSc1ncnc2c1ncn2C1OC(CO)C(O)OC1O (centres undefined)
TGI [1]: 96.3 µM
TGI [2]: 14.6 µM
TGI [3]: 23.8 µM
TGI [4]: 52.4 µM
TGI [5]: > 100 µM
TGI [6]: > 100 µM
TGI [7]: > 93.1 µM
TGI [8]: 38 µM
TGI [9]: 36.8 µM
TGI [10]: > 100 µM

O=C(/C(=C/c1ccc([N+](=O)[O-])cc1)SCc1ccc(F)cc1)c1ccc(Cl)cc1
GI50 [1]: 3.12 µM
TGI [1]: 13 µM
GI50 [2]: 4.37 µM
TGI [2]: 23 µM
GI50 [3]: 2.78 µM
TGI [3]: 9.49 µM
GI50 [4]: 6.6 µM
TGI [4]: 96.6 µM
GI50 [5]: 2.63 µM
TGI [5]: > 100 µM
GI50 [6]: 37.1 µM
TGI [6]: > 100 µM
GI50 [7]: 4.57 µM
TGI [7]: > 100 µM
GI50 [8]: 15.5 µM
TGI [8]: 36.6 µM
GI50 [9]: 2.81 µM
TGI [9]: 8.63 µM
GI50 [10]: 1.96 µM
TGI [10]: 4.1 µM

CCCCCCCCCCCCCCCCOP(=O)(O)OP(=O)(O)OCC1OC(n2ccc(N)nc2=O)C(O)C1O (centres undefined)
TGI [1]: > 100 µM
TGI [2]: > 100 µM
TGI [3]: > 100 µM
TGI [4]: > 100 µM
TGI [5]: > 100 µM
GI50 [6]: > 100 µM and 48.7 µM
TGI [6]: > 100 µM
GI50 [7]: > 100 µM and 13.7 µM
TGI [7]: > 100 µM
TGI [8]: > 100 µM
TGI [9]: > 100 µM
TGI [10]: > 100 µM

CC[C@@]1(O)C(=O)OCc2c1cc1n(c2=O)Cc2c-1nc1cc3c(cc1c2C)OCO3
GI50 [1]: 0.0244 µM and 0.0174 µM
TGI [1]: > 100 µM
GI50 [2]: 0.0147 µM
TGI [2]: > 100 µM
GI50 [3]: 0.0016 µM
GI50 [4]: < 0.0001 µM
GI50 [5]: < 0.0001 µM
TGI [5]: 0.000207 µM
GI50 [6]: < 0.0001 µM
TGI [6]: 0.25 µM and 0.331 µM
GI50 [7]: < 0.0001 µM
TGI [7]: > 100 µM
GI50 [8]: 0.000755 µM
TGI [8]: 0.141 µM and 0.0175 µM
GI50 [9]: 0.0241 µM
TGI [9]: > 100 µM
GI50 [10]: < 0.0001 µM
TGI [10]: 0.0601 µM

CCN(CC)CCNc1cc(-c2cccc(OC(F)(F)F)c2)nc2ccc(N3CCCC3)cc12
GI50 [1]: 2.14 µM and 1.62 µM and 3.11 µM
TGI [1]: 7.86 µM and 3.67 µM and 12.9 µM
GI50 [2]: 1.68 µM and 1.65 µM and 1.5 µM
TGI [2]: 3.27 µM and 3.31 µM and 3.13 µM
GI50 [3]: 1.47 µM and 1.43 µM and 1.74 µM
TGI [3]: 2.83 µM and 2.85 µM and 3.3 µM
GI50 [4]: 1.94 µM and 1.76 µM and 1.99 µM
TGI [4]: 4.04 µM and 3.36 µM and 4.24 µM
GI50 [5]: 0.418 µM and 0.462 µM
TGI [5]: 2.12 µM and 2.26 µM
GI50 [6]: 1.69 µM and 1.88 µM and 3.01 µM
TGI [6]: 3.63 µM and 3.66 µM and 9.59 µM
GI50 [7]: 1.65 µM and 1.72 µM and 2.18 µM
TGI [7]: 3.19 µM and 3.3 µM and 4.53 µM
GI50 [8]: 1.51 µM and 1.5 µM and 1.7 µM
TGI [8]: 3.03 µM and 3.09 µM and 4.02 µM
GI50 [9]: 1.71 µM and 1.7 µM and 1.85 µM
TGI [9]: 3.51 µM and 3.39 µM and 3.77 µM
GI50 [10]: 1.53 µM and 1.68 µM and 1.92 µM
TGI [10]: 2.9 µM and 3.28 µM and 3.93 µM

c1ccc(CN=C(NCc2ccccc2)NCc2ccccc2)cc1
GI50 [1]: 6.23 µM
TGI [1]: 36.8 µM
GI50 [2]: 10.6 µM
TGI [2]: 25.4 µM
GI50 [3]: 3.21 µM
TGI [3]: 15.1 µM
GI50 [4]: 6.44 µM
TGI [4]: 21.8 µM
GI50 [5]: 6.21 µM
TGI [5]: 29.5 µM
GI50 [6]: 10.9 µM
TGI [6]: 23.6 µM
GI50 [7]: 30.6 µM
TGI [7]: > 100 µM
GI50 [8]: 14.3 µM
TGI [8]: 28.2 µM
GI50 [9]: 3.36 µM
TGI [9]: 13.1 µM
GI50 [10]: 6.03 µM
TGI [10]: 21.1 µM

COc1cccc2c1c(C1=C(c3cn(C)c4ccccc34)C(=O)NC1=O)cn2C
GI50 [1]: > 25 µM
TGI [1]: > 25 µM
GI50 [2]: > 25 µM
TGI [2]: > 25 µM
GI50 [3]: > 13.8 µM
TGI [3]: > 25 µM
GI50 [4]: > 25 µM
TGI [4]: > 25 µM
GI50 [5]: > 16.6 µM
TGI [5]: > 25 µM
GI50 [6]: > 25 µM
TGI [6]: > 25 µM
GI50 [7]: > 25 µM
TGI [7]: > 25 µM
GI50 [8]: > 25 µM
TGI [8]: > 25 µM
GI50 [9]: > 25 µM
TGI [9]: > 25 µM
GI50 [10]: > 25 µM
TGI [10]: > 25 µM
